Test results reported in US12043599B2, “Herbicidal compounds” (SYNGENTA PARTICIPATIONS AG, priority 2018, dated 2024).

Key:
Format in all cases: in vivo
Conditions in all cases: 250 g/h, evaluated after 13 days
Setaria faberi (SETFA) [1] = test: Post-emergence herbicidal glasshouse test, percentage damage
Method: (§1) Seeds of a variety of test species are sown in standard soil in pots (Lolium perenne (LOLPE), Setaria faberi (SETFA), Alopecurus myosuroides (ALOMY), Echinochloa crus-galli (ECHCG), Avena fatua (AVEFA)). After cultivation for one day (pre-emergence) or after 8 days cultivation (post-emergence) under controlled conditions in a glasshouse (at 24/16° C., day/night; 14 hours light; 65% humidity), the plants are sprayed with an aqueous spray solution derived from the formulation of the technical active ingredient in acetone/water (50:50) solution containing 0.5% Tween 20 (polyoxyethelyene sorbitan monolaurate, CAS RN 9005-64-5). Compounds are applied at […]. The test plants are then grown in a glasshouse under controlled conditions in a glasshouse (at 24/16° C., day/night; 14 hours light; 65% humidity) and watered twice daily. After 13 days for pre and post-emergence, the test is evaluated for the percentage damage caused to the plant. The biological activities are shown in the following table on a five point scale (5=80-100%; 4=60-79%; 3=40-59%; 2=20-39%; 1=0-19%).
Using procedures outlines above, wheat and barley crop plants and a weed species (SETFA) are treated post-emergence with compound A11 of the present invention or comparator compound C1 (Compound A-38 from WO2014/096289) at the application rates indicated. The compounds were also applied to wheat in conjunction with the safener compound cloquintocet-mexyl (CQC) at 50 g/ha.

Avena fatua (AVEFA) [2] = test: as above
Method: as §1

Lolium perenne (LOLPE) [3] = test: as above
Method: as §1

[4] = test system: Echinochloa crus-galli (ECHCG); test: as above
Method: as §1

Avena fatua (AVEFA) [5] = test: Pre-emergence herbicidal glasshouse test, percentage damage
Method: as §1

Setaria faberi (SETFA) [6] = test: as above
Method: as §1

[7] = test system: Alopecurus myosuroides (ALOMY); test: as above
Method: as §1

Lolium perenne (LOLPE) [8] = test: as above
Method: as §1

[9] = test system: Echinochloa crus-galli (ECHCG); test: as above
Method: as §1

Row | SMILES | SETFA POST percentage damage (five point scale) (Setaria faberi (SETFA) [1]) | AVEFA POST percentage damage (five point scale) (Avena fatua (AVEFA) [2]) | LOLPE POST percentage damage (five point scale) (Lolium perenne (LOLPE) [3]) | ECHCG POST percentage damage (five point scale) [4] | AVEFA PRE percentage damage (five point scale) (Avena fatua (AVEFA) [5]) | SETFA PRE percentage damage (five point scale) (Setaria faberi (SETFA) [6]) | ALOMY PRE percentage damage (five point scale) [7] | LOLPE PRE percentage damage (five point scale) (Lolium perenne (LOLPE) [8]) | ECHCG PRE percentage damage (five point scale) [9]
1 | CC#Cc1cc(C)c(C2C(=O)CC3(CCN(C(=O)c4nc(OC)n(C)n4)CC3)CC2=O)c(C)c1 [Compound A105] | 5 (5=80-100%) | 5 (5=80-100%) | 5 (5=80-100%) | 3 (3=40-59%) | 5 (5=80-100%) | 5 (5=80-100%) | 5 (5=80-100%) | 5 (5=80-100%) | 5 (5=80-100%)
2 | CC#Cc1cc(C)c(C2=C(OC(=O)OC)CC3(CCN(C(=O)CC#N)CC3)CC2=O)c(C)c1 [Compound P43] | 5 (5=80-100%) | 5 (5=80-100%) | 5 (5=80-100%) | 4 (4=60-79%) | 5 (5=80-100%) | 5 (5=80-100%) | 5 (5=80-100%) | 5 (5=80-100%) | 5 (5=80-100%)
3 | CC#Cc1cc(C)c(C2=C(OC(=O)OC)CC3(CCN(C(=O)C4=NOC(C)(C)C4)CC3)CC2=O)c(C)c1 [Compound P39] | 5 (5=80-100%) | 5 (5=80-100%) | 5 (5=80-100%) | 5 (5=80-100%) | 5 (5=80-100%) | 5 (5=80-100%) | 5 (5=80-100%) | 5 (5=80-100%) | 5 (5=80-100%)
4 | CC#Cc1cc(C)c(C2=C(OC(=O)OC)CC3(CCN(C(=O)c4cnccn4)CC3)CC2=O)c(C)c1 [Compound P38] | 5 (5=80-100%) | 5 (5=80-100%) | 5 (5=80-100%) | 5 (5=80-100%) | 5 (5=80-100%) | 5 (5=80-100%) | 5 (5=80-100%) | 5 (5=80-100%) | 5 (5=80-100%)
5 | CC#Cc1cc(C)c(C2=C(OC(=O)OC)CC3(CCN(C(=O)c4cccnc4)CC3)CC2=O)c(C)c1 [Compound P35] | 5 (5=80-100%) | 5 (5=80-100%) | 5 (5=80-100%) | 5 (5=80-100%) | 5 (5=80-100%) | 5 (5=80-100%) | 5 (5=80-100%) | 5 (5=80-100%) | 5 (5=80-100%)
6 | CC#Cc1cc(C)c(C2=C(OC(=O)OC)CC3(CCN(C(=O)C4COC4)CC3)CC2=O)c(C)c1 [Compound P44] | 5 (5=80-100%) | 5 (5=80-100%) | 5 (5=80-100%) | 5 (5=80-100%) | 5 (5=80-100%) | 5 (5=80-100%) | 5 (5=80-100%) | 5 (5=80-100%) | 5 (5=80-100%)
7 | CC#Cc1cc(C)c(C2=C(OC(=O)OC)CC3(CCN(C(=O)c4ccncn4)CC3)CC2=O)c(C)c1 [Compound P37] | 5 (5=80-100%) | 5 (5=80-100%) | 5 (5=80-100%) | 5 (5=80-100%) | 5 (5=80-100%) | 5 (5=80-100%) | 5 (5=80-100%) | 5 (5=80-100%) | 5 (5=80-100%)
8 | CC#Cc1cc(C)c(C2=C(OC(=O)OC)CC3(CCN(C(=O)C4CC4)CC3)CC2=O)c(C)c1 [Compound P42] | 5 (5=80-100%) | 5 (5=80-100%) | 5 (5=80-100%) | 5 (5=80-100%) | 5 (5=80-100%) | 5 (5=80-100%) | 5 (5=80-100%) | 5 (5=80-100%) | 5 (5=80-100%)
9 | CC#Cc1cc(C)c(C2=C(OC(C)=O)CC3(CCN(C(=O)CC#N)CC3)CC2=O)c(C)c1 [Compound P41] | 5 (5=80-100%) | 5 (5=80-100%) | 5 (5=80-100%) | 5 (5=80-100%) | 5 (5=80-100%) | 5 (5=80-100%) | 5 (5=80-100%) | 5 (5=80-100%) | 5 (5=80-100%)
10 | CC#Cc1cc(C)c(C2=C(OC(=O)OC)CC3(CCN(C(=O)C4CCOCC4)CC3)CC2=O)c(C)c1 [Compound P40] | 5 (5=80-100%) | 5 (5=80-100%) | 5 (5=80-100%) | 5 (5=80-100%) | 5 (5=80-100%) | 5 (5=80-100%) | 5 (5=80-100%) | 5 (5=80-100%) | 5 (5=80-100%)
11 | CC#Cc1cc(C)c(C2C(=O)CC3(CCN(C(=O)c4ccnc(F)c4)CC3)CC2=O)c(C)c1 [Compound A125] | 5 (5=80-100%) | 5 (5=80-100%) | 5 (5=80-100%) | 5 (5=80-100%) | 5 (5=80-100%) | 5 (5=80-100%) | – | 5 (5=80-100%) | 5 (5=80-100%)
12 | CC#Cc1cc(C)c(C2C(=O)CC3(CCN(C(=O)CC4CCOCC4)CC3)CC2=O)c(C)c1 [Compound A109] | 5 (5=80-100%) | 5 (5=80-100%) | 5 (5=80-100%) | 5 (5=80-100%) | 5 (5=80-100%) | 5 (5=80-100%) | – | 5 (5=80-100%) | 5 (5=80-100%)
13 | CC#Cc1cc(C)c(C2C(=O)CC3(CCN(C(=O)c4cc(C)nc(C)n4)CC3)CC2=O)c(C)c1 [Compound A122] | 5 (5=80-100%) | 5 (5=80-100%) | 5 (5=80-100%) | 5 (5=80-100%) | 5 (5=80-100%) | 5 (5=80-100%) | – | 5 (5=80-100%) | 5 (5=80-100%)
14 | CC#Cc1cc(C)c(C2C(=O)CC3(CCN(C(=O)c4nn(C)nc4C)CC3)CC2=O)c(C)c1 [Compound A134] | 5 (5=80-100%) | 5 (5=80-100%) | 5 (5=80-100%) | 5 (5=80-100%) | 5 (5=80-100%) | 5 (5=80-100%) | – | 5 (5=80-100%) | 5 (5=80-100%)
